Drawing on ChEMBL document CHEMBL1212772 (2010), this text covers MIC for 4 molecules.

Converted amounts (≈) assume the structure as drawn.

Holding throughout (type): functional
Assay [1] relates to Pseudomonas aeruginosa. Kind of assay: Antimicrobial activity against Pseudomonas aeruginosa OC 4352 overexpressing beta-lactamase AmpC assessed as inhibition of growth by broth dilution method.
Assay [2] relates to Acinetobacter baumannii. Kind of assay: Antimicrobial activity against Acinetobacter baumannii OC 11738 expressing beta-lactamase OXA-23 and containing Carbapenemase assessed as inhibition of growth by broth dilution method. Background: Dilution methods test growth across graded concentrations, often in twofold steps.
The test system of assay [3] is Klebsiella pneumoniae. Nature of the assay: Antimicrobial activity against Klebsiella pneumoniae OC 5367 expressing beta-lactamase KPC-2 and containing Carbapenemase assessed as inhibition of growth by broth dilution method.
Assay [4] has as its system Klebsiella pneumoniae. Nature of the assay: Antimicrobial activity against Klebsiella pneumoniae OC 4238 overexpressing beta-lactamase SHV-1 assessed as inhibition of growth by broth dilution method.
Assay [5] deals with Pseudomonas aeruginosa. Nature of the assay: Antimicrobial activity against Pseudomonas aeruginosa OC 12115 expressing beta-lactamase SPM-1 and containing Carbapenemase assessed as inhibition of growth by broth dilution method.
The subject of assay [6] is Escherichia coli. Nature of the assay: Antimicrobial activity against Escherichia coli OC 11732 expressing extended-spectrum beta-lactamase CTX-M-15 assessed as inhibition of growth by broth dilution method.
The subject of assay [7] is Klebsiella oxytoca. Nature of the assay: Antimicrobial activity against wild type Klebsiella oxytoca OC 4076 expressing Beta-lactamase K1 assessed as inhibition of growth by broth dilution method.
For assay [8], the system named is Pseudomonas aeruginosa. Nature of the assay: Antimicrobial activity against Pseudomonas aeruginosa OC 13996 expressing beta-lactamase IMP-1 and containing Carbapenemase assessed as inhibition of growth by broth dilution method.
Assay [9] relates to Pseudomonas aeruginosa. Nature of the assay: Antimicrobial activity against wild type Pseudomonas aeruginosa ATCC 27853 expressing beta-lactamase AmpC assessed as inhibition of growth by broth dilution method.
For assay [10], the system named is Escherichia coli. Nature of the assay: Antimicrobial activity against wild type Escherichia coli ATCC 25922 deficient in beta-lactamase assessed as inhibition of growth by broth dilution method.
The subject of assay [11] is Pseudomonas aeruginosa. Kind of assay: Antimicrobial activity against Pseudomonas aeruginosa OC 7052 expressing beta-lactamase VIM-2 and containing Carbapenemase assessed as inhibition of growth by broth dilution method.
The subject of assay [12] is Enterobacter cloacae. Nature of the assay: Antimicrobial activity against Enterobacter cloacae OC 4080 overexpressing beta-lactamase AmpC assessed as inhibition of growth by broth dilution method.
The test system of assay [13] is Serratia marcescens. Nature of the assay: Antimicrobial activity against wild type Serratia marcescens OC 7555 deficient in beta-lactamase assessed as inhibition of growth by broth dilution method.
The test system of assay [14] is Escherichia coli. Kind of assay: Antimicrobial activity against Escherichia coli DH5-alpha expressing beta-lactamase TEM-1 assessed as inhibition of growth by broth dilution method.
For assay [15], the system named is Escherichia coli. Nature of the assay: Antimicrobial activity against Escherichia coli OC 6697 expressing beta-lactamase CMY-2 and containing plasmid AmpC assessed as inhibition of growth by broth dilution method.
Assay [16] has as its system Serratia marcescens. Nature of the assay: Antimicrobial activity against wild type Serratia marcescens OC 7554 expressing beta-lactamase SME-3 and containing Carbapenemase assessed as inhibition of growth by broth dilution method.
The test system of assay [17] is Pseudomonas aeruginosa. Nature of the assay: Antimicrobial activity against Pseudomonas aeruginosa OC 4083 expressing beta-lactamase OXA-10 and containing Oxacillinase assessed as inhibition of growth by broth dilution method.
Assay [18] relates to Klebsiella pneumoniae. Kind of assay: Antimicrobial activity against wild type Klebsiella pneumoniae OC 15263 expressing beta-lactamase SHV-1 assessed as inhibition of growth by broth dilution method.
Assay [19] concerns Klebsiella pneumoniae. Kind of assay: Antimicrobial activity against Klebsiella pneumoniae OC 4094 expressing extended-spectrum Beta-lactamase TEM-26 assessed as inhibition of growth by broth dilution method.
Assay [20] relates to Acinetobacter baumannii. Kind of assay: Antimicrobial activity against wild type Acinetobacter baumannii OC 16708 deficient in beta-lactamase assessed as inhibition of growth by broth dilution method.

Usually MIC stands for the least concentration at which growth counts as inhibited. In the case of `CC(C)(O/N=C(\C(=O)N[C@@H]1C(=O)N2C(C(=O)[O-])=C(C[n+]3ccccc3)CS[C@H]12)c1csc(N)n1)C(=O)O` [CEFTAZIDIME], the MIC is 32 µg/mL (≈ 58.5 µM) in assay [1]; more than 256 µg/mL in assay [2]; 32 µg/mL (≈ 58.5 µM) in assay [3]; 2 µg/mL (≈ 3.66 µM) in assay [4]; more than 256 µg/mL in assay [5]; 32 µg/mL (≈ 58.5 µM) in assay [6]. For the same molecule, the MIC in assay [7] was 1 µg/mL (≈ 1.83 µM); in assay [8], more than 256 µg/mL; in assay [9] it was 2 µg/mL (≈ 3.66 µM); in assay [10] it was 0.25 µg/mL (≈ 0.457 µM); in assay [11] it was 64 µg/mL (≈ 117 µM); in assay [12], 32 µg/mL (≈ 58.5 µM). Moreover, the MIC is 0.5 µg/mL (≈ 0.915 µM) in assay [13]; 0.5 µg/mL (≈ 0.915 µM) in [14]; more than 128 µg/mL in assay [15]; 0.5 µg/mL (≈ 0.915 µM) in assay [16]; more than 4 µg/mL in [17]; 0.12 µg/mL (≈ 0.22 µM) in [18]. The MIC in [19] is more than 256 µg/mL; in assay [20], 4 µg/mL (≈ 7.32 µM).

For the molecule `C[C@@H](O)[C@H]1C(=O)N2C(C(=O)O)=C(S[C@@H]3CN[C@H](CNS(N)(=O)=O)C3)[C@H](C)[C@H]12` [DORIPENEM], the minimum inhibitory concentration (MIC) in [1] was 0.5 µg/mL (≈ 1.19 µM); in assay [2] it was 32 µg/mL (≈ 76.1 µM); in assay [3], 8 µg/mL (≈ 19 µM); in assay [4] it was 0.06 µg/mL (≈ 0.143 µM); in [5], more than 256 µg/mL; in assay [6] it was 0.06 µg/mL (≈ 0.143 µM). The MIC in assay [7] was 0.06 µg/mL (≈ 0.143 µM); in assay [8] it was more than 256 µg/mL; in assay [9] it was 0.5 µg/mL (≈ 1.19 µM); in [10] it was 0.03 µg/mL (≈ 0.0713 µM); in [11], 32 µg/mL (≈ 76.1 µM); in assay [12], 0.25 µg/mL (≈ 0.595 µM). The MIC came to 0.06 µg/mL (≈ 0.143 µM) in assay [13]; 0.06 µg/mL (≈ 0.143 µM) in assay [14]; 0.06 µg/mL (≈ 0.143 µM) in assay [15]; 128 µg/mL (≈ 304 µM) in assay [16]; 2 µg/mL (≈ 4.76 µM) in assay [17]; 0.06 µg/mL (≈ 0.143 µM) in assay [18]. Further, the results for the MIC in assay [19] and in [20] were 0.12 µg/mL (≈ 0.285 µM) and 0.25 µg/mL (≈ 0.595 µM), respectively.

Regarding `C[C@@H](O)[C@H]1C(=O)N2C(C(=O)O)=C(SCCNC=N)C[C@H]12` [IMIPENEM ANHYDROUS], the MIC in assay [1] is 2 µg/mL (≈ 6.68 µM); in assay [2], 64 µg/mL (≈ 214 µM); in assay [3], 16 µg/mL (≈ 53.4 µM); in assay [4], 0.25 µg/mL (≈ 0.835 µM); in [5], more than 256 µg/mL; in [6] it was 0.25 µg/mL (≈ 0.835 µM). Also, the MIC in assay [7] was 0.25 µg/mL (≈ 0.835 µM); in assay [8] it was more than 256 µg/mL; in assay [9] it was 2 µg/mL (≈ 6.68 µM); in [11] it was 64 µg/mL (≈ 214 µM); in [12] it was 1 µg/mL (≈ 3.34 µM); in [13] it was 0.25 µg/mL (≈ 0.835 µM). Besides, the MIC in assay [15] is 0.5 µg/mL (≈ 1.67 µM); in assay [16] it was more than 256 µg/mL; in assay [17], 1 µg/mL (≈ 3.34 µM); in [18], 0.5 µg/mL (≈ 1.67 µM); in [19], 0.5 µg/mL (≈ 1.67 µM); in assay [20], 0.25 µg/mL (≈ 0.835 µM).

As for `C[C@@H](O)[C@H]1C(=O)N2C(C(=O)O)=C(S[C@@H]3CN[C@H](C(=O)N(C)C)C3)[C@H](C)[C@H]12` [MEROPENEM], the MIC in assay [1] is 0.5 µg/mL (≈ 1.3 µM); in assay [2], 64 µg/mL (≈ 167 µM); in assay [4], 0.03 µg/mL (≈ 0.0782 µM); in [5], more than 256 µg/mL; in [6], 0.03 µg/mL (≈ 0.0782 µM); in assay [7] it was 0.06 µg/mL (≈ 0.156 µM). Further, the MIC was more than 256 µg/mL in assay [8]; 0.5 µg/mL (≈ 1.3 µM) in assay [9]; 0.03 µg/mL (≈ 0.0782 µM) in [10]; 32 µg/mL (≈ 83.4 µM) in [11]; 0.25 µg/mL (≈ 0.652 µM) in assay [12]; 0.03 µg/mL (≈ 0.0782 µM) in [13]. Besides, the MIC is 0.03 µg/mL (≈ 0.0782 µM) in assay [14]; 0.06 µg/mL (≈ 0.156 µM) in assay [15]; 128 µg/mL (≈ 334 µM) in assay [16]; 2 µg/mL (≈ 5.22 µM) in assay [17]; 0.03 µg/mL (≈ 0.0782 µM) in [18]; 0.06 µg/mL (≈ 0.156 µM) in [19]. In addition, the minimum inhibitory concentration (MIC) in assay [20] is 0.25 µg/mL (≈ 0.652 µM).
